Data: article PMC8998978, “Toward a Treatment of Cancer: Design and In Vitro/In Vivo Evaluation of Uncharged Pyrazoline Derivatives as a Series of Novel SHP2 Inhibitors” (International Journal of Molecular Sciences, 2022)

How the values were obtained:
[1] = target: T1, recombinant human SHP2 protein (Homo sapiens, UniProt Q06124); assay: Inhibition type of SHP2 (double reciprocal plot, pNPP); assay type: biochemical; settings: 4o 0, 0.5, 1, 2 µM; various pNPP concentrations
T1 sequence (Q06124 1-593): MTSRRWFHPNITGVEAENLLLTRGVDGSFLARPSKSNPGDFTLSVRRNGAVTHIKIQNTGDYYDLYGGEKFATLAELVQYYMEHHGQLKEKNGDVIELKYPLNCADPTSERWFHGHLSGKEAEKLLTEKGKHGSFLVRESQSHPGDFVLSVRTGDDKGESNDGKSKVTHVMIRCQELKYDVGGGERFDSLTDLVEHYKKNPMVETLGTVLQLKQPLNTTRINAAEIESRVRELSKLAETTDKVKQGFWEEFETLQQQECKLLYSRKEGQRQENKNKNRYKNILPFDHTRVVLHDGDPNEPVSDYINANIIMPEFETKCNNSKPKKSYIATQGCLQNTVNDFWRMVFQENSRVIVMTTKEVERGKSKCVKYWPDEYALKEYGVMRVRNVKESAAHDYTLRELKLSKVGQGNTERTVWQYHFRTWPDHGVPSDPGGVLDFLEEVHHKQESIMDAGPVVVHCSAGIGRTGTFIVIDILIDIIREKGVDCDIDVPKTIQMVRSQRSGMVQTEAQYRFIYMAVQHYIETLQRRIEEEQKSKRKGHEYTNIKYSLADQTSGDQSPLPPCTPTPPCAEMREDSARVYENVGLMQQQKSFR
Description: Inhibition kinetic studies were performed with various concentrations of pNPP in the absence or presence of inhibitors. The experimental results were analyzed using double reciprocal plotting to evaluate the type of inhibition.
The experimental process was similar to the SHP2 inhibition assay. In the assay, the initial rates at a series of pNPP concentrations were determined at various fixed inhibitor concentrations of 4o (0 µM, 0.5 µM, 1 µM and 2 µM) as described above. The values of 1/[S] and 1/[V] were obtained from the substrate concentration and initial reaction rate, and were plotted on the x-axis and y-axis, respectively. The inhibition type of SHP2 was determined according to the intersection characteristics of the obtained approximate line.

human cancer cells = assay: Cell viability assay, panel of cancer cells; assay type: cell-based; settings: 11 cancer cell lines, 72 h, read-out: IC50 values against cancer cells (range over the panel)
Excerpt: Human colon cancer cell line HCT116, hepatoma cell lines HepG2 and BEL-7402, lung adenocarcinoma cell lines NCI-H1975 and 95-D, pancreatic cancer cell line Panc-1, breast cancer cell line MDA-MB-231, NSCLC cell line NCI-H1299, ovarian cancer cell line SK-OV-3, leukemia cell line K562, glioma cell line U87, colon epithelial cell line NCM460 and umbilical vein endothelial cell line HUVEC were purchased from the Institute of Biochemistry and Cell Biology, Chinese Academy of Sciences (Shanghai, China). HCT116 cell line was cultured in McCoy’s 5A medium (Hyclone, Logan, UT, USA). HepG2, 95-D, Panc-1, MDA-MB-231, BEL-7402, SK-OV-3, U87 and NCM460 cell lines were cultured in DMEM-High glucose medium (Hyclone, Logan, UT, USA). NCI-H1975, NCI-H1299 and HUVEC cell lines were cultured in RPMI 1640 medium (Hyclone, Logan, UT, USA). K562 cell line was cultured in IMDM medium (Hyclone, Logan, UT, USA). […]
The inhibition rate of cell viability was detected by 3-(4,5-dimethyl-2-thiazolyl)-2,5-diphenyl-2-H-tetrazolium bromide (MTT, Solarbio, Beijing, China) or Sulforhodamine B (SRB, Sigma-Aldrich, St. Louis, MO, USA) assay. […] The absorbance at 570 nm was measured in a multimode reader (Berthold Technologies, Germany). […] Finally, Tris–HCl solution was added, and the absorbance at 515 nm was detected in a multimode reader (Berthold Technologies, Germany).

HCT116 cells = assay: Western blotting of apoptosis-related proteins; assay type: cell-based, human; settings: HCT116, 4o 2.5, 5 and 10 μM, 24 h, versus DMSO
Description: HCT116 cells were harvested, lysed on ice in RIPA buffer (Beyotime Institute of Biotechnology, Shanghai, China) and boiled. Protein concentration was measured by BCA protein assay kit (Beyotime Institute of Biotechnology, Shanghai, China). The protein samples were separated by SDS-PAGE and transferred to the membrane (Pall, New York, NY, USA). Afterwards, the membrane was immunoblotted with the corresponding primary antibody (C-parp (#5625), C-cas9 (#9505), C-cas3 (#9661), Bcl-2 (#4223), Bax (#5023), SHP2 (#3752), P-Erk1/2 (#9101) and Erk1/2 (#9102), 1:1000, Cell Signaling Technology, Danvers, MA, USA; Tubulin (#ET1602-4), 1:5000, HUABIO, Hangzhou, China) and the appropriate HRP-conjugated secondary antibody, and determined with ECL detection reagent (Thermo Scientific, Waltham, MA, USA).

## CCOc1ccc(Oc2ccc(C3=NN(C4=NC(=O)CS4)C(c4cc(O)c(O)c(Br)c4Br)C3)cc2)cc1 (stereo not shown) [Compound 4o, 2-(5-(2,3-dibromo-4,5-dihydroxyphenyl)-3-(4-(4-ethoxyphenoxy)phenyl)-4,5-dihydro-1H-pyrazol-1-yl)thiazol-4(5H)-one]
[1]
  Inhibition type of SHP2: competitive SHP2 inhibitor
Human cancer cells
  IC50: 2.64 to 10.2 µM
HCT116 cells
  Bax/Bcl-2 ratio: up-regulated
  Levels of cleaved parp, cleaved caspase9 and cleaved caspase3: increased
